Test results taken from patent US10028961B2, “Therapeutically active compounds and their methods of use” (AGIOS PHARMACEUTICALS, INC., priority 2013, dated 2018).

Molecular target: IDH1-R132C homodimer enzyme (Homo sapiens (Human), UniProt O75874, R132C)
Experiment: In vitro assay IDH1-R132C homodimer, NADPH depletion assay with NADPH/NADP preincubation
Format: biochemical
Settings: 5 uM NADPH and 28.75 uM NADP, read-out: IDH R132C NADPH/NADP IC50
Procedure: The following describes the experimental procedures that can be used to obtain data on columns 3 and 5 of Table 5.
A test compound is prepared as 10 mM stock in DMSO and diluted to 50× final concentration in DMSO, for a 50 μl reaction mixture. IDH enzyme activity converting alpha-ketoglutarate to 2-hydroxyglutaric acid is measured using a NADPH depletion assay. In the assay the remaining cofactor is measured at the end of the reaction with the addition of a catalytic excess of diaphorase and resazurin, to generate a fluorescent signal in proportion to the amount of NADPH remaining. […] The reaction is started with the addition of 10 μl of Substrate Mix ([…], 5 mM alpha-ketoglutarate, in Assay Buffer) and the mixture is incubated for 60 minutes at room temperature.
The concentration of alpha-ketoglutarate in the Substrate Buffer is 1 mM.

IDH1-R132C homodimer enzyme, sequence (O75874 whole entry R132C): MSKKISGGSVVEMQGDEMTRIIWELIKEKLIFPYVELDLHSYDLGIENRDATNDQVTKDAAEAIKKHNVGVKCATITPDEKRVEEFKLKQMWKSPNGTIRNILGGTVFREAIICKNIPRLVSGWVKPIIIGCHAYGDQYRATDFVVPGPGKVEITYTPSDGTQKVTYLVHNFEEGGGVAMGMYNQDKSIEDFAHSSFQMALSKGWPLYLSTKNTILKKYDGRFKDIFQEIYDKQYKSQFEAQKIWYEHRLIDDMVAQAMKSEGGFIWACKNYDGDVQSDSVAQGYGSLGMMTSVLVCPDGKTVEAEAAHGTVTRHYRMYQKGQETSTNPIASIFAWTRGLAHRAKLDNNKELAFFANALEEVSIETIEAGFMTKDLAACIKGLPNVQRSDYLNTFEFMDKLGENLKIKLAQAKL

Structure (SMILES) | IC50 [nM]
Fc1cc(F)cc(Nc2nc(NC3CC(F)(F)C3)nc(-n3ccc(C(F)(F)F)n3)n2)c1 [Compound 106] | < 50
N#CC1(c2cc(Nc3nc(NC4CC(F)(F)C4)nc(-c4cccc(C(F)(F)F)n4)n3)ccn2)CC1 [Compound 168] | 50 to 100
FC1(F)CC[C@H](Nc2nc(Nc3ccnc(C(F)(F)F)c3)nc(-c3cncc(C(F)(F)F)n3)n2)C1 [Compound 391] | 100 to 1000
N#CC1(c2cc(Nc3nc(NC4CC(F)(F)C4)nc(-c4cncc(C(F)(F)F)n4)n3)ccn2)CC1 [Compound 401] | 100 to 1000

The remaining lines, values ahead:

IC50 [nM] | Structure (SMILES)
50 to 100 | FC1(F)CC(Nc2nc(NC3CC(F)(F)C3)nc(-c3cncc(C(F)(F)F)n3)n2)C1 [Compound 161]
100 to 1000 | FC1(F)CCC(Nc2nc(NC3CCC(F)(F)CC3)nc(-c3cncc(C(F)(F)F)n3)n2)CC1 [Compound 160]
100 to 1000 | N#CC1(c2cc(Nc3nc(NC4CCC(F)(F)CC4)nc(-c4cccc(C(F)(F)F)n4)n3)ccn2)CC1 [Compound 189]
100 to 1000 | FC1(F)CCC(Nc2nc(Nc3ccnc(C(F)(F)F)c3)nc(-c3cncc(C(F)(F)F)n3)n2)CC1 [Compound 389]
